Results from patent US9957271B2, “Substituted bicyclic aza-heterocycles and analogues as sirtuin modulators” (GlaxoSmithKline, LLC, priority 2012, dated 2018).

Biological target: T1, SIRT1 (Homo sapiens, UniProt Q96EB6)
T1 sequence (Q96EB6 1-747): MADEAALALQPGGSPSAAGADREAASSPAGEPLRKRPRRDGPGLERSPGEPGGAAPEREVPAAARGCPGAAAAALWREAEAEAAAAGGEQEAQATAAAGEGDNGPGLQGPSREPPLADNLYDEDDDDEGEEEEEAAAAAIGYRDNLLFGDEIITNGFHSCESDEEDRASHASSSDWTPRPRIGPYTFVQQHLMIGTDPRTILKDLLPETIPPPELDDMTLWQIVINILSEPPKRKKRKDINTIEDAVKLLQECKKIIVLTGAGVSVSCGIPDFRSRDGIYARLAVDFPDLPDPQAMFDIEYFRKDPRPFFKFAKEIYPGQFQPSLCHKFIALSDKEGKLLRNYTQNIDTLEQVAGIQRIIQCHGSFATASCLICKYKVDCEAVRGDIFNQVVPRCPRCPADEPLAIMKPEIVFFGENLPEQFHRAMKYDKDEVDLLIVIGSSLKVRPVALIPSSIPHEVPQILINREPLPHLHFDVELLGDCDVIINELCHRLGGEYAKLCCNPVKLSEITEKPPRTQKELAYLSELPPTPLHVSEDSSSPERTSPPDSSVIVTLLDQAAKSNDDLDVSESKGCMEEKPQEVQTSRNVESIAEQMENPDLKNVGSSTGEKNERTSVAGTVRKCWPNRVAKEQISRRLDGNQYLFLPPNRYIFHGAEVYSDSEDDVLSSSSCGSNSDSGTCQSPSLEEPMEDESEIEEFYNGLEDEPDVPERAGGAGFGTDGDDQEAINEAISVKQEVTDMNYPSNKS
Experiment: Trp mass spectrometry assay of SIRT1 activity
Type: biochemical
Details: Trp assay; for Trp EC1.5 (μM): concentration giving 150% activation of SIRT1; for Emax: percent maximum fold activation, read-out: Trp % Fold Act
From the text: Mass spectrometry based assays were used to identify modulators of SIRT1 activity. The TAMRA based assay utilized a peptide having 20 amino acid residues as follows: Ac-EE-K(biotin)-[…](Ac)NleSTEG-K(5TMR)-EE-NH2 (SEQ ID NO: 1), wherein K(Ac) is an acetylated lysine residue and Nle is a norleucine. The peptide was labeled with the fluorophore 5TMR (excitation 540 nm/emission 580 nm) at the C-terminus. The sequence of the peptide substrate was based on p53 with several modifications. In addition, the methionine residue naturally present in the sequence was replaced with the norleucine because the methionine may be susceptible to oxidation during synthesis and purification. The Trp based assay utilized a peptide having an amino acid residues as follows: Ac-R-H-K-K(Ac)-W-NH2 (SEQ ID NO: 2).
The Trp mass spectrometry assay was conducted as follows. 0.5 μM peptide substrate and 120 μM βNAD^+ were incubated with 10 nM SIRT1 for 25 minutes at 25° C. in a reaction buffer (50 mM HEPES pH 7.5, […], 1 mM DTT, 0.05% BSA). The SIRT1 protein was obtained by cloning the SirT1 gene into a T7-promoter containing vector, which was then expressed in BL21(DE3) bacterial cells and purified as described in further detail below. Test compound was added at varying concentrations to this reaction mixture and the resulting reactions were monitored. After the 25 minute incubation with SIRT1, 10 μL of 10% formic acid was added to stop the reaction. The resulting reactions were sealed and frozen for later mass spec analysis. The relative SIRT1 activity was then determined by measuring the amount of O-acetyl-ADP-ribose (OAADPR) formed (or, alternatively, the amount of deacetylated Trp peptide generated) by the NAD-dependent sirtuin deacetylation reaction in the presence of varying concentrations of the test compound versus control reactions lacking the test compound. The degree to which the test agent activated deacetylation by SIRT1 was expressed as EC1.5 (i.e., the concentration of compound required to increase SIRT1 activity by 50% over the control lacking test compound), and Percent Maximum Activation (i.e., the maximum activity relative to control (100%) obtained for the test compound).
A control for inhibition of sirtuin activity was conducted by adding 1 μL of 500 mM nicotinamide as a negative control at the start of the reaction (e.g., permits determination of maximum sirtuin inhibition). A control for activation of sirtuin activity was conducted using 10 nM of sirtuin protein, with 1 μL of DMSO in place of compound, to determine the amount of deacetylation of the substrate at a given time point within the linear range of the assay. This time point was the same as that used for test compounds and, within the linear range, the endpoint represents a change in velocity.
For the above assay, SIRT1 protein was expressed and purified as follows. The SirT1 gene was cloned into a T7-promoter containing vector and transformed into BL21(DE3). The protein was expressed by induction with 1 mM IPTG as an N-terminal His-tag fusion protein at 18° C. overnight and harvested at 30,000×g. Cells were lysed with lysozyme in lysis buffer (50 mM Tris-HCl, 2 mM Tris[2-carboxyethyl]phosphine (TCEP), 10 μM ZnCl2, 200 mM NaCl) and further treated with sonication for […] for complete lysis. The protein was purified over a Ni-NTA column (Amersham) and fractions containing pure protein were pooled, concentrated and run over a sizing column (Sephadex S200 26/60 global). The peak containing soluble protein was collected and run on an Ion-exchange column (MonoQ). Gradient elution (200 mM-500 mM NaCl) yielded pure protein. This protein was concentrated and dialyzed against dialysis buffer (20 mM Tris-HCl, 2 mM TCEP) overnight. The protein was aliquoted and frozen at −80° C. until further use.

Row | SMILES | Trp EC1.5 (μM) | Emax [%]
1 | Cc1nc(NC(=O)c2cnc3ccc(N4CC[C@H](F)C4)nn23)sc1C [Compound 892] | A (EC1.5<1 μM) | < 350
2 | Cc1cc(NC(=O)c2cnc3ccc(N4CC[C@H](F)C4)nn23)nc(C)n1 [Compound 893] | C (EC1.5>25 μM) | < 350
3 | O=C(Nc1ccncn1)c1cnc2ccc(N3CCCC3)nn12 [Compound 894] | B (EC1.5 1-25 μM) | < 350
4 | O=C(Nc1cccnn1)c1cnc2ccc(N3CCCC3)nn12 [Compound 895] | C (EC1.5>25 μM) | < 350
5 | O=C(Nc1cccnc1)c1cnc2ccc(N3CCCC3)nn12 [Compound 896] | B (EC1.5 1-25 μM) | < 350
6 | O=C(Nc1ccc(F)cn1)c1cnc2ccc(N3CCCC3)nn12 [Compound 897] | C (EC1.5>25 μM) | < 350
7 | O=C(Nc1ccncc1F)c1cnc2ccc(N3CCCC3)nn12 [Compound 898] | C (EC1.5>25 μM) | < 350
8 | O=C(Nc1ccc(F)cn1)c1cnc2ccc(N3CCCC(C(F)(F)F)C3)nn12 (stereo not drawn) [Compound 900] | A (EC1.5<1 μM) | < 350
9 | Cc1cncc(NC(=O)c2cnc3ccc(N4CCCC(C(F)(F)F)C4)nn23)c1 (stereo not drawn) [Compound 901] | A (EC1.5<1 μM) | ≥ 350
10 | O=C(Nc1cccnn1)c1cnc2ccc(N3CCCC(C(F)(F)F)C3)nn12 (stereo not drawn) [Compound 902] | A (EC1.5<1 μM) | ≥ 350
11 | O=C(Nc1ccncc1F)c1cnc2ccc(N3CCC(F)(F)C3)nn12 [Compound 903] | C (EC1.5>25 μM) | < 350
12 | O=C(Nc1cccnn1)c1cnc2ccc(N3CCC(F)(F)C3)nn12 [Compound 904] | B (EC1.5 1-25 μM) | ≥ 350
13 | O=C(Nc1cnccn1)c1cnc2ccc(N3CCC(F)(F)C3)nn12 [Compound 905] | B (EC1.5 1-25 μM) | < 350
14 | O=C(Nc1ccncn1)c1cnc2ccc(N3CCC(F)(F)C3)nn12 [Compound 906] | B (EC1.5 1-25 μM) | < 350
15 | O=C(Nc1ccc(F)cn1)c1cnc2ccc(N3CCC(F)(F)C3)nn12 [Compound 907] | B (EC1.5 1-25 μM) | < 350
16 | O=C(Nc1cccnc1)c1cnc2ccc(N3CCC(F)(F)C3)nn12 [Compound 908] | B (EC1.5 1-25 μM) | < 350
17 | O=C(Nc1ccccn1)c1cnc2ccc(N3CCC(F)(F)C3)nn12 [Compound 909] | B (EC1.5 1-25 μM) | ≥ 350
18 | O=C(Nc1cncc(F)c1)c1cnc2ccc(N3CCCC(C(F)(F)F)C3)nn12 (stereo not drawn) [Compound 910] | A (EC1.5<1 μM) | ≥ 350
19 | CN(C)c1cccc(NC(=O)c2cnc3ccc(N4CC[C@H](F)C4)nn23)n1 [Compound 911] | A (EC1.5<1 μM) | ≥ 350
20 | O=C(Nc1ccccn1)c1cnc2ccc(N3CC(F)(F)C3)nn12 [Compound 912] | B (EC1.5 1-25 μM) | < 350
21 | O=C(Nc1cccnc1)c1cnc2ccc(N3CC(F)(F)C3)nn12 [Compound 913] | B (EC1.5 1-25 μM) | < 350

Row | SMILES | Trp EC1.5 (μM) | Emax [%]
22 | O=C(Nc1ccc(F)cn1)c1cnc2ccc(N3CC(F)(F)C3)nn12 [Compound 914] | C (EC1.5>25 μM) | < 350
23 | O=C(Nc1ccncc1F)c1cnc2ccc(N3CC(F)(F)C3)nn12 [Compound 915] | C (EC1.5>25 μM) | < 350
24 | O=C(Nc1cccnn1)c1cnc2ccc(N3CC(F)(F)C3)nn12 [Compound 916] | C (EC1.5>25 μM) | < 350
25 | O=C(Nc1cc(OC[C@@H](O)CO)cnn1)c1cnc2ccc(N3CC[C@H](F)C3)nn12 [Compound 917] | B (EC1.5 1-25 μM) | < 350
26 | COc1nccc(NC(=O)c2cnc3ccc(N4CC[C@H](F)C4)nn23)n1 [Compound 918] | B (EC1.5 1-25 μM) | < 350
27 | O=C(Nc1ccc(C(F)(F)F)nc1)c1cnc2ccc(N3CC[C@H](F)C3)nn12 [Compound 919] | C (EC1.5>25 μM) | < 350
28 | Cc1ccc(NC(=O)c2cnc3ccc(N4CC[C@H](F)C4)nn23)cn1 [Compound 920] | B (EC1.5 1-25 μM) | < 350
29 | O=C(Nc1ccncn1)c1cnc2ccc(N3CC(F)(F)C3)nn12 [Compound 921] | C (EC1.5>25 μM) | < 350
30 | COc1cc(NC(=O)c2cnc3ccc(N4CC[C@H](F)C4)nn23)ncn1 [Compound 922] | C (EC1.5>25 μM) | < 350
31 | CN(C)c1ccnc(NC(=O)c2cnc3ccc(N4CC[C@H](F)C4)nn23)n1 [Compound 923] | A (EC1.5<1 μM) | ≥ 350
32 | CN(C)c1cnnc(NC(=O)c2cnc3ccc(N4CC[C@H](F)C4)nn23)c1 [Compound 924] | B (EC1.5 1-25 μM) | < 350
33 | O=C(Nc1cnccn1)c1cnc2ccc(N3CC(F)(F)C3)nn12 [Compound 926] | C (EC1.5>25 μM) | < 350
34 | O=C(Nc1ccccn1)c1cnc2ccc(N3CCC(F)(F)CC3)nn12 [Compound 927] | B (EC1.5 1-25 μM) | ≥ 350
35 | O=C(Nc1cccnc1)c1cnc2ccc(N3CCC(F)(F)CC3)nn12 [Compound 928] | B (EC1.5 1-25 μM) | < 350
36 | O=C(Nc1cncc(F)c1)c1cnc2ccc(N3CCC(F)(F)CC3)nn12 [Compound 929] | B (EC1.5 1-25 μM) | ≥ 350
37 | O=C(Nc1cccnn1)c1cnc2ccc(N3CCC(F)(F)CC3)nn12 [Compound 930] | B (EC1.5 1-25 μM) | ≥ 350
38 | O=C(Nc1ccncc1F)c1cnc2ccc(N3CCCC(C(F)(F)F)C3)nn12 (stereo not drawn) [Compound 931] | A (EC1.5<1 μM) | ≥ 350
39 | O=C(Nc1cccnc1)c1cnc2ccc(N3CCCC(C(F)(F)F)C3)nn12 (stereo not drawn) [Compound 932] | A (EC1.5<1 μM) | ≥ 350
40 | CO[C@H]1CCN(c2ccc3ncc(C(=O)Nc4ccccn4)n3n2)C1 [Compound 933] | B (EC1.5 1-25 μM) | < 350
41 | CO[C@H]1CCN(c2ccc3ncc(C(=O)Nc4cccnc4)n3n2)C1 [Compound 934] | B (EC1.5 1-25 μM) | < 350
42 | CO[C@H]1CCN(c2ccc3ncc(C(=O)Nc4ccc(F)cn4)n3n2)C1 [Compound 935] | B (EC1.5 1-25 μM) | < 350
